Molecular target: T1, Scytalone dehydratase (Magnaporthe oryzae (strain 70-15 / FGSC 8958) (Rice blast fungus)(Pyricularia oryzae), UniProt P56221)
T1 sequence (P56221 whole entry): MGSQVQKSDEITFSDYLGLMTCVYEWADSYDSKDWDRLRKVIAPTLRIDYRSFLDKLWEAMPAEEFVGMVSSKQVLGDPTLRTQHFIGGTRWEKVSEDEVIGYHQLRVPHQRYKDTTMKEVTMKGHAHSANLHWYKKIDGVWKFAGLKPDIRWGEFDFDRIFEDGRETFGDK
Assay: The compound was evaluated for its binding affinity against wild type scytalone dehydratase (SD)
Design: species or system Pyricularia grisea

CC(C)NC(=O)c1cc(F)ccc1O
Ki: 0.45 µM

Source: ChEMBL document CHEMBL1133488 (Bioorg Med Chem Lett, 2000)
